Results taken from US8148493B2, “Method for inhibiting “melanoma inhibitory activity” MIA” (Antisense Pharma GmbH, priority 2002, dated 2012).

Columns and labels:
[1] = target: T1, MIA (Homo sapiens, UniProt Q16674); assay: Boyden Chamber assay, melanoma cell invasion with and without MIA; assay type: cell-based
T1 sequence (Q16674 25-131): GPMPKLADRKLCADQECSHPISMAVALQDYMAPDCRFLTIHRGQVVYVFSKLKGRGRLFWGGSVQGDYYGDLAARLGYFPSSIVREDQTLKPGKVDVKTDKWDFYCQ
Source text: Both in vitro and in vivo MIA expression levels strictly correlate with an highly invasive phenotype (Bosserhoff et al., 1996, J. Biol. Chem. 271, 490-495; Bosserhoff et al., 1999, J. of Pathology 187, 446-454). Further in vivo studies have shown the necessity of MIA for melanoma invasion and metastasis (Bosserhoff et al., 2001, Melanoma Res. 11, 417-421., Guba, et al., 2000, Br. J. Cancer 83, 1216-1222). We therefore aimed to design MIA-inhibitory peptides based on our experiments which identified fibronectin epitopes interacting with MIA (Stoll et al., 2001; EMBO J. 20: 340-349). Peptides derived from fibronectin which were shown previously to cross-react with MIA were tested in Boyden Chamber assays on their effect on melanoma cell invasion with and without MIA. […] In addition we tested several of the peptide sequences derived from phage display screenings and found peptide SEQ ID NO:16 to be a potential interesting candidate for therapeutic MIA-inhibition. […] We then tested the effect of peptides SEQ ID NO:16 and 22 on growth of metastasis in vivo using the B16/C57B16 model.

[2] = tested on: B16 melanoma cells; assay: In vivo experimental metastasis assay, B16/C57Bl6 model; settings: C57Bl6 mice, B16 cells i.v., peptide 550 μg/mouse every day, 18 days; for size of the lung tumor nodules: control 119.9±9.95; for number of black lung nodules of melanoma: control 193±13
Procedure: To measure the effect of SEQ ID NO: 16 and SEQ ID NO:22 on the metastatic potential of B16 melanoma cells in vivo an experimental metastasis assay was used (Bosserhoff et al., 2001, Melanoma Res. 11, 417-421). Intravenous injections of monodispersed tumor cells (1×10^5 cells per animal) were performed into syngeneic C57BI6 mice (n=12 for every peptide as well as control). Peptides (550 μg/mouse) or PBS was injected every day. After 18 days the mice were sacrificed, the lungs removed, washed in PBS, fixed in formalin and the visible tumor nodules on the surface of the lungs were counted and the tumor areas measured.

[3] = tested on: melanoma cells; assay: Melanoma (tumor) cell attachment; assay type: cell-based

Row | Sequence | effect on MIA function (melanoma cell invasion) [1] | size of the lung tumor nodules [2] | number of black lung nodules of melanoma [2] | effect on melanoma/tumor cell attachment [3]
1 | ETTIVITWTPAPR (from phage display screening) [SEQ ID NO:22, fibronectin-derived peptide] | block MIA function | 87.15±5.32 | 249±26 | 
2 | NSLLVSWQPPRAR (from phage display screening) [SEQ ID NO:24, fibronectin-derived peptide] | block MIA function |  |  | inhibit also tumor cell attachment
3 | RLTLLVLIMPAP (from phage display screening) [SEQ ID NO:16, do-decapeptide from phage display] | strongly inhibited | 78.1±5.03 | 198±19 | no effect
4 | TSLLISWDAPAVT (from phage display screening) [SEQ ID NO:23, fibronectin-derived peptide] | block MIA function |  |  | inhibit also tumor cell attachment
